Measurements taken from patent US6617117B1, “MAP kinases: polypeptides, polynucleotides and uses thereof” (Medical Research Council, priority 1996, dated 2003).

What was measured:
SAPK3 = target: T1, SAPK3 (Rattus norvegicus, UniProt Q63538); assay: Activation of transfected myc epitope-tagged SAPK3 in KB and 293 cells, immunoprecipitation and MBP assay; type: cell-based, human
T1 construct: expressed in transfected cells; host or cells: human KB and 293 cells (vector pSG5)
T1 sequence (Q63538 1-367): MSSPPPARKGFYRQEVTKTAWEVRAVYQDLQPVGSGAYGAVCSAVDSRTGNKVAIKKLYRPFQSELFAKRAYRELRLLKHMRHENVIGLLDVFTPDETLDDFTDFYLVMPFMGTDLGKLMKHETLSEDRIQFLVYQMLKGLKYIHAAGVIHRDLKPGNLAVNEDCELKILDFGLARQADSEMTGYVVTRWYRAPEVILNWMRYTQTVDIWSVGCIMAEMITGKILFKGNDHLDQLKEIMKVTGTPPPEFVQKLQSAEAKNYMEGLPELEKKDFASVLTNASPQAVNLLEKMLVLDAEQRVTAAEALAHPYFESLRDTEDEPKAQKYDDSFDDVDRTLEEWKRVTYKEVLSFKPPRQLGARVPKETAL
Experimental: FIG. 11. SAPK3 is activated by cytokines and cellular stresses in KB and 293 cells. KB cells (A) or 293 cells (B) were transiently transfected with a DNA construct expressing a myc epitope-tagged SAPK3. Cells in DMEM were stimulated for 15 min with 0.5 M sorbitol (an osmotic shock), 20 ng/ml IL-1α, 100 ng/ml TNFa, 0.5 mM sodium arsenite (a chemical stress), 100 ng/ml of EGF or 300 ng/ml TPA, or for 30 min with […] anisomycin or 10 min with 100 ng/ml IGF-1. UV-C irradiation of cells was carried out at 60 J/m2 (KB cells) or 200 J/m2 (293 cells) and the cells then left for a further 30 min at 37° C. before lysis. The myc epitope-tagged SAPK3 was immunoprecipitated from cell lysates using the 9E10 monoclonal antibody and assayed with MBP as substrate. […] After UV-C irradiation, SAPK3 activity in the extracts was 0.18 U/mg (KB cells) and 0.1 U/mg (293 cells).
Cell culture and transient transfections. 293, KB and COS-7 cells were cultured in Dulbecco's modified Eagles' Medium (DMEM) supplemented with 10% foetal calf serum, at 37° C., in an atmosphere of 5% CO2. Transfections of 293 cells were carried out using the calcium-phosphate method. […]

MAPKAP-K2 = conditions: every mammalian cell so far examined; cited from earlier work

Structure (SMILES): C[S+]([O-])c1ccc(-c2nc(-c3ccncc3)c(-c3ccc(F)cc3)[nH]2)cc1 (centres unmarked) [SB 203580]
- Prevention of activation of transfected SAPK3 by osmotic shock (SAPK3): did not prevent
- Suppression of stress- and cytokine-induced activation of MAPKAP-K2 (MAPKAP-K2): 80-95%
